Experimental data as given in the supplement of paper PMC10331698.
± gives the standard deviation of the averaged measurements.

Assays:
Assay in all cases: level (log10 ratio to DMSO vehicle control); higher = higher biomarker level / cell amount than vehicle control
Perfluoroundecanoic acid = compound: O=C(O)C(F)(F)C(F)(F)C(F)(F)C(F)(F)C(F)(F)C(F)(F)C(F)(F)C(F)(F)C(F)(F)C(F)(F)F [Perfluoroundecanoic acid] (in DMSO); conditions: 6700 nM
Method in brief: (§1)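 BioMAP Diversity Plus human primary cell co-cultures got test substances 1 h before cytokine or activator stimulation, then 24 h incubation (MyoF 48 h; BT 72 h, or 6 d for secreted IgG), one well per endpoint, final DMSO < 0.1%. Biomarkers were read by ELISA, cell amount by sulforhodamine B, and PBMC viability/proliferation by Alamar Blue. Each well was divided by the mean of 8 same-plate DMSO wells and log10 transformed. Duplicate blinded samples were averaged.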

[1] = compound: NS(=O)(=O)C(F)(F)C(F)(F)C(F)(F)C(F)(F)C(F)(F)C(F)(F)C(F)(F)C(F)(F)F [Perfluorooctanesulfonamide] (in DMSO)
Method in brief: as §1

[2] = compound: OCCC(F)(F)C(F)(F)C(F)(F)C(F)(F)F [4:2 Fluorotelomer alcohol] (in DMSO)
Method in brief: as §1

[3] = compound: OCC(F)(F)OC(F)(F)C(F)(F)OC(F)(F)C(F)(F)OC(F)(F)CO [1H,1H,11H,11H-Perfluorotetraethylene glycol] (in DMSO)
Method in brief: as §1

[4] = compound: O=C(O)CCC(F)(C(F)(F)F)C(F)(F)F [4,4-bis(Trifluoromethyl)-4-fluoropropanoic acid] (in DMSO)
Method in brief: as §1

[5] = compound: CN(C(=O)C(F)(F)C(F)(F)C(F)(F)F)[Si](C)(C)C [N-Methyl-N-trimethylsilylheptafluorobutyramide] (in DMSO)
Method in brief: as §1

[6] = compound: CO[Si](C)(CCC(F)(F)C(F)(F)C(F)(F)C(F)(F)C(F)(F)C(F)(F)F)OC [Dimethoxymethyl((perfluorohexyl)ethyl)silane] (in DMSO)
Method in brief: as §1

[7] = compound: O=C(O)C=C(C(F)(F)F)C(F)(F)F [3,3-Bis(trifluoromethyl)-2-propenoic acid] (in DMSO)
Method in brief: as §1

Test System	level (log10) (Perfluoroundecanoic acid)	level (log10) ([1]; 6700 nM)	level (log10) ([1]; 20000 nM)	level (log10) ([2]; 6700 nM)	level (log10) ([2]; 20000 nM)	level (log10) ([2]; 60000 nM)	level (log10) ([3]; 6700 nM)	level (log10) ([3]; 20000 nM)	level (log10) ([3]; 60000 nM)	level (log10) ([4]; 6700 nM)	level (log10) ([4]; 20000 nM)	level (log10) ([4]; 60000 nM)	level (log10) ([5]; 6700 nM)	level (log10) ([5]; 20000 nM)	level (log10) ([5]; 60000 nM)	level (log10) ([6]; 6700 nM)	level (log10) ([6]; 20000 nM)	level (log10) ([7]; 6700 nM)	level (log10) ([7]; 20000 nM)	level (log10) ([7]; 60000 nM)
KF3CT:SRB	-0.0105 ± 0.0021	-0.0035 ± 0.015	-0.0455 ± 0.029	-0.009 ± 0.0071	-0.009 ± 0.013	-0.0025 ± 0.00071	-0.003 ± 0.014	0.003 ± 0.0071	-0.012 ± 0.013	-0.003 ± 0.0042	0.004 ± 0.0071	0.008 ± 0.0099	-0.004 ± 0.0014	-0.0095 ± 0.015	-0.003 ± 0.013	-0.0045 ± 0.0064	-0.004 ± 0.0028	-0.0015 ± 0.0021	0.003	0.024 ± 0.0071
KF3CT:TIMP-2	0.0125 ± 0.012	-0.0275 ± 0.012	-0.06 ± 0.021	-0.0185 ± 0.14	-0.0295 ± 0.074	0.004 ± 0.054	-0.008 ± 0.017	0.023 ± 0.0085	0.0295 ± 0.0092	-0.0315 ± 0.039	-0.0015 ± 0.052	-0.0125 ± 0.0035	-0.0315 ± 0.011	-0.0145 ± 0.0078	0.0095 ± 0.035	-0.004 ± 0.028	0.0035 ± 0.011	0.006 ± 0.048	-0.016 ± 0.021	0.039 ± 0.052
KF3CT:uPA	0.0125 ± 0.018	0.0165 ± 0.0064	-0.093 ± 0.0014	-0.0105 ± 0.039	-0.0185 ± 0.0021	0.017 ± 0.027	0.005 ± 0.0057	0.018 ± 0.0099	0.024 ± 0.031	0.001 ± 0.0071	-0.0145 ± 0.028	-0.004 ± 0.023	-0.0045 ± 0.019	0.0135 ± 0.005	0.0115 ± 0.0078	0.0015 ± 0.0092	-0.015 ± 0.0028	0.027 ± 0.02	0.0275 ± 0.028	0.0325 ± 0.0021
MyoF:CD106/VCAM-1	-0.079 ± 0.018	-0.005 ± 0.023	-0.293 ± 0.088	-0.0275 ± 0.0078	-0.024 ± 0.0042	-0.0225 ± 0.064	0.011 ± 0.0057	-0.012 ± 0.011	-0.0985 ± 0.05	-0.0065 ± 0.0078	-0.0095 ± 0.026	-0.0045 ± 0.015	-0.0125 ± 0.021	-0.014 ± 0.024	-0.017 ± 0.0085	0.003 ± 0.0042	-0.008 ± 0.018	-0.0825 ± 0.00071	-0.145 ± 0.0021	-0.291 ± 0.04
MyoF:CXCL8/IL-8	0.0245 ± 0.0092	-0.04 ± 0.031	-0.013 ± 0.0085	-0.039	-0.0475 ± 0.0021	0.0435 ± 0.0078	-0.0185 ± 0.011	-0.0215 ± 0.00071	-0.013 ± 0.018	0.0035 ± 0.0092	0.0085 ± 0.0078	0.009 ± 0.0099	0.0005 ± 0.025	0.003 ± 0.0042	0.009 ± 0.027	-0.016 ± 0.0014	0.0085 ± 0.036	0.0915 ± 0.00071	0.107 ± 0.015	0.154 ± 0.016
MyoF:Collagen I	-0.421 ± 0.0092	-0.018 ± 0.014	-0.236 ± 0.0028	-0.031 ± 0.044	-0.031 ± 0.041	0.01 ± 0.028	-0.0005 ± 0.026	0.001 ± 0.03	-0.0495 ± 0.016	-0.0045 ± 0.012	-0.0065 ± 0.0092	0.008 ± 0.0028	0.0025 ± 0.019	0.007 ± 0.023	0.01 ± 0.0057	-0.0075 ± 0.0064	0.007 ± 0.0014	-0.031 ± 0.0057	-0.046 ± 0.021	-0.055 ± 0.04
MyoF:Collagen III	-0.3895 ± 0.00071	-0.014 ± 0.0099	-0.242 ± 0.023	-0.011 ± 0.038	0.007 ± 0.042	0.0245 ± 0.032	-0.002	-0.0085 ± 0.011	-0.0415 ± 0.0078	-0.0045 ± 0.011	-0.0205 ± 0.021	0.003 ± 0.02	0.006 ± 0.0028	0.007 ± 0.0028	-0.003 ± 0.0085	0.0175 ± 0.019	-0.011 ± 0.011	-0.021 ± 0.0014	-0.0335 ± 0.00071	-0.064 ± 0.011
MyoF:Collagen IV	0.57 ± 0.013	0.118 ± 0.015	0.28 ± 0.028	0 ± 0.0057	-0.0095 ± 0.012	0.0285 ± 0.05	-0.012 ± 0.0014	-0.0015 ± 0.011	0.0245 ± 0.021	-0.0105 ± 0.025	-0.0185 ± 0.023	0.0035 ± 0.00071	0.0175 ± 0.0021	0.0075 ± 0.0078	0.0325 ± 0.04	0.0085 ± 0.018	0.038 ± 0.0028	-0.0215 ± 0.029	-0.055 ± 0.025	-0.0345 ± 0.028
MyoF:Decorin	-0.026 ± 0.035	0.0265 ± 0.053	0.031 ± 0.037	-0.0155 ± 0.066	0.003 ± 0.028	0.0645 ± 0.026	-0.009	-0.013	0.019 ± 0.017	-0.0215 ± 0.025	-0.015 ± 0.044	-0.001 ± 0.04	0.009 ± 0.011	0.0095 ± 0.018	0.03 ± 0.042	-0.0005 ± 0.0021	0.029 ± 0.034	-0.0275 ± 0.0021	-0.043 ± 0.024	-0.057 ± 0.045
MyoF:MMP-1	-0.036 ± 0.018	-0.038 ± 0.013	0.0955 ± 0.04	-0.0345 ± 0.04	-0.026 ± 0.027	0.0215 ± 0.0064	0 ± 0.027	-0.0085 ± 0.015	0.0465 ± 0.083	0.0125 ± 0.013	-0.0265 ± 0.00071	0 ± 0.011	-0.007 ± 0.0028	-0.0055 ± 0.005	-0.017 ± 0.018	-0.001 ± 0.011	-0.012 ± 0.017	-0.0075 ± 0.0092	-0.0445 ± 0.0078	-0.0085 ± 0.093
MyoF:PAI-I	-0.01 ± 0.018	0.0135 ± 0.019	0.006 ± 0.0071	-0.0185 ± 0.018	-0.0215 ± 0.019	-0.0155 ± 0.00071	-0.01 ± 0.02	-0.0135 ± 0.013	-0.01 ± 0.018	-0.005 ± 0.0057	-0.007 ± 0.0042	-0.006 ± 0.0099	-0.009 ± 0.021	0.0095 ± 0.015	0.0105 ± 0.0092	0.0075 ± 0.0092	0.008 ± 0.0014	-0.005 ± 0.0042	0.0045 ± 0.0064	0.005 ± 0.02
MyoF:SRB	-0.029 ± 0.014	-0.0135 ± 0.0035	-0.136 ± 0.0021	-0.0015 ± 0.0035	0.0015 ± 0.0035	-0.0015 ± 0.005	-0.0065 ± 0.00071	-0.0145 ± 0.00071	-0.0445 ± 0.015	-0.004 ± 0.0028	-0.003 ± 0.0014	0.0025 ± 0.0021	0.0035 ± 0.012	0.0035 ± 0.0035	0.0055 ± 0.0035	0.0045 ± 0.0064	0.0005 ± 0.00071	0.0005 ± 0.012	-0.005 ± 0.0014	-0.024 ± 0.0071
MyoF:TIMP-1	-0.117 ± 0.055	-0.007 ± 0.027	-0.098 ± 0.018	-0.001 ± 0.04	0.013 ± 0.075	0.009 ± 0.059	-0.0035 ± 0.012	0.017	0.0285 ± 0.005	-0.0245 ± 0.091	-0.042 ± 0.064	-0.0345 ± 0.025	-0.0385 ± 0.019	-0.027 ± 0.014	-0.017	-0.0175 ± 0.0035	-0.0295 ± 0.018	-0.0545 ± 0.025	-0.023 ± 0.023	-0.0085 ± 0.077
